In patent US6166290A, “Glutathione-S-conjugate transport in plants” (The Trustees of the University of Pennsylvania, priority 1997, dated 2000):
Where two headings read alike, the source gives them in different places.

Key:
[1] = system: vacuolar GS-X pump (vacuolar membrane vesicles, V. radiata hypocotyls); experiment: GS-conjugate uptake by vacuolar membrane vesicles from etiolated hypocotyls of V. radiata; assay type: biochemical, Vigna radiata; details: 65 μM
Protocol: Values shown are means ±SE (n=3).
Vacuolar membrane vesicles were purified from etiolated hypocotyls of V. radiata cv.
Unless otherwise indicated, [^3 H]medicarpin or [3H]medicarpin-GS uptake was measured at 25° C. in 200 μl reaction volumes containing 3 mM ATP, 3 mM MgSO4, 10 mM creatine phosphate, 16 U/ml creatine kinase, 50 mM KCl, 0.1% (w/v) BSA, 400 mM sorbitol and 25 mM Tris-Mes buffer, pH 8.0. Uptake was initiated by the addition of 12 μl membrane vesicles (30-40 μg protein) and brief mixing of the samples on a vortex mixer. Uptake was terminated by the addition of 1 ml ice-cold wash medium (400 mM sorbitol, 3 mM Tris-Mes, pH 8.0) and vacuum filtration of the suspension through prewetted HA cellulose nitrate filters (pore diameter 0.45 μm). The filters were rinsed twice with a 1 ml ice-cold wash medium, air-dried and radioactivity was determined by liquid scintillation counting.

[2] = biological target: T1, YCF1 (vacuolar membrane vesicles purified from DTY165 cells) (Saccharomyces cerevisiae, UniProt P39109); experiment: biochemical; assay type: biochemical; details: for 109Cd uptake of Mono-Q fraction: 5 μM gramicidin-D
T1 construct: endogenous in cells; host or cells: S. cerevisiae DTY165 (wild type YCF1), vacuolar membrane vesicles
Protocol: (§1) In experiments involving cadmium transport, dithiothreitol and EGTA were removed from the suspension medium to prevent the attenuation of YCF1-dependent Cd^2+ transport otherwise exerted by these compounds. Vesiculated vacuolar membranes were subjected to three cycles of 50-fold dilution into simplified suspension medium (1.1 M glycerol, 5 mM Tris-Mes, pH 8.0), centrifugation at 100,000× g for 35 minutes and resuspension in the same medium before use.
(§2) Singly radiolabeled ^109 Cd.GSn and doubly radio-labeled ^109 Cd[^3 H].GS^n complexes were prepared by sequential gel-filtrationand anion-exchange chromatography of the reaction products generated by incubating 20 mM ^109 CdSO4 (78.4 mCi/mmol) with 40 mM GSH or 40 mM [^3 H]GSH (240 mCi/mmol) in 15 ml 10 mM phosphate buffer (pH 8.0) containing 150 mM KNO3 at 45° C. for 24 hours. For gel-filtration, 2 ml aliquots of the reaction mixture were applied to a column (40×1.5 cm ID) packed with water-equilibrated Sephadex G-1 5, eluted with deionized water and ^109 Cd and/or ^3 H in the fractions was measured by liquid scintillation counting. The fractions encompassed by each of the two ^109 Cd.GSn peaks identified were pooled, lyophilized and redissolved in 4 ml of loading buffer (5 mM Tris-Mes, pH 8.0). For anion-exchange chromatography, 0.5 ml aliquots of the resuspended lyophilizates from gel-filtration chromatography were applied to a Mono-Q HR5/5 column (Pharmacia) equilibrated with the same buffer. Elution was with a linear gradient of NaCl (0.5 ml/minute; 0-500 mM) dissolved in loading buffer. The individual fractions corresponding to the major peaks of ^109 Cd obtained from the Mono-Q column (one each for the peaks resolved by gel-filtration chromatography) were pooled, lyophilized and resuspended in 4 ml deionized water after liquid scintillation counting.
(§3) MgATP-energized, uncoupler-insensitive ^109 Cd^2+ uptake by vacuolar membrane vesicles was measured at 25° C. in 200 μl reaction volumes containing 3 mM ATP, 3 mM MgSO4, 5 μM gramicidin-D, 10 mM creatine phosphate, 16 units/ml creatine kinase, 50 mM KCl, 400 mM sorbitol, 25 mM Tris-Mes (pH 8.0) and the indicated concentrations of ^109 CdSO4, GSH or ^109 Cd- and/or ^3 H-labeled purified Cd.GSn complexes as described herein except that the wash media contained 100 μM CdSO4 in addition to sorbitol (400 mM) and Tris-Mes (3 mM, pH 8.0).

[3] = system: vacuolar membrane vesicles purified from DTY167 cells (ycf1Δ mutant); assay type: biochemical, Saccharomyces cerevisiae; details: for 109Cd uptake of Mono-Q fraction: 5 μM gramicidin-D
Protocol: as §1, §2, §3

[4] = biological target: T1, YCF1 (vacuolar membrane vesicles purified from DTY165 cells); experiment: [3H]DNP-GS uptake by vacuolar membrane vesicles purified from DTY165 cells; assay type: biochemical
Protocol: (§4) For the routine preparation of vacuolar membrane vesicles, 15 ml of stationary phase cultures of DTY165 or DTY167 were diluted into 1-liter volumes of fresh YPD medium, grown for 24 hours at 30° C. to an OD600 nm of approximately 0.8 and collected by centrifugation. After washing with distilled water, the cells were converted to spheroplasts with Zymolyase 20T (ICN) (Kim et al., 1994, supra) and intact vacuoles were isolated by flotation centrifugation of spheroplast lysates on Ficoll 400 step gradients as described by Roberts et al. (1991, Methods. Enzymol. 194:644-661). Both the spheroplast lysis buffer and Ficoll gradients contained 2 mg/ml bovine serum albumin, 1 μg/ml aprotinin, 1 μg/ml leupeptin, 1 μg/ml pepstatin, and 1 mM PMSF to minimize proteolysis. The resulting vacuole fraction was vesiculated in 5 mM MgCl2, 25 mM KCl, 10 mM Tris-Mes (pH 6.9) containing 2 mg/ml bovine serum albumin, 1 μg/ml aprotinin, 1 μg/ml leupeptin, 1 μg/ml pepstatin, and 1 mM PMSF, pelleted by centrifugation at 37,000× g for 25 min, and resuspended in suspension medium (1.1 M glycerol, 2 mM dithiothreitol, 1 mM Tris-EGTA, 2 mg/ml bovine serum albumin, 1 μg/ml aprotinin, 1 μg/ml leupeptin, 1 μg/ml pepstatin, 1 mM PMSF, 5 mM Tris-Mes, pH 7.6) (Kim et al., 1995, J. Biol. Chem. 270:2630-2635).
(§5) Unless otherwise indicated, [^3 H]DNP-GS uptake was measured at 25° C. in 200 μl reaction volumes containing 3 mM ATP, 3 mM MgSO4, 5 μM gramicidin-D, 10 mM creatine phosphate, 16 units/ml creatine kinase, 50 mM KC 1, 1 mg/ml bovine serum albumin, 400 mM sorbitol, 25 mM Tris-Mes (pH 8.0), and 66.2 μM [^3 H]DNP-GS (8.7 mCi/mmol) (Li et al., 1995, supra). […] Uptake was initiated by the addition of vacuolar membrane vesicles (10-15 μg of membrane protein), brief mixing of the samples on a vortex mixer and uptake was then allowed to proceed for 1-60 minutes. Uptake was terminated by the addition of 1 ml of ice-cold wash medium (400 mM sorbitol, 3 mM Tris-Mes, pH 8.0) and vacuum filtration of the suspension through prewetted Millipore HA cellulose nitrate membrane filters (pore diameter, 0.45 μm). The filters were rinsed twice with 1 ml of ice-cold wash medium and air-dried, and radioactivity was determined by liquid scintillation counting in BCS mixture (Amersham Corp.). Nonenergized [^3 H]DNP-GS uptake and extravesicular solution trapped on the filters were enumerated by the same procedure except that ATP and Mg^2 +were omitted from the uptake medium.

[5] = system: vacuolar membrane vesicles purified from DTY167 cells (ycf1Δ mutant); assay type: biochemical, Saccharomyces cerevisiae; details: 5 μM gramicidin D, GSH, GSSG 1 mM, GS-conjugates 100 μM
Protocol: as §4, §5

[6] = 50 μM (as Cd), pretreated 1:4 with 2-ME, 60° C., 10 minutes

T1 sequence (P39109 whole entry): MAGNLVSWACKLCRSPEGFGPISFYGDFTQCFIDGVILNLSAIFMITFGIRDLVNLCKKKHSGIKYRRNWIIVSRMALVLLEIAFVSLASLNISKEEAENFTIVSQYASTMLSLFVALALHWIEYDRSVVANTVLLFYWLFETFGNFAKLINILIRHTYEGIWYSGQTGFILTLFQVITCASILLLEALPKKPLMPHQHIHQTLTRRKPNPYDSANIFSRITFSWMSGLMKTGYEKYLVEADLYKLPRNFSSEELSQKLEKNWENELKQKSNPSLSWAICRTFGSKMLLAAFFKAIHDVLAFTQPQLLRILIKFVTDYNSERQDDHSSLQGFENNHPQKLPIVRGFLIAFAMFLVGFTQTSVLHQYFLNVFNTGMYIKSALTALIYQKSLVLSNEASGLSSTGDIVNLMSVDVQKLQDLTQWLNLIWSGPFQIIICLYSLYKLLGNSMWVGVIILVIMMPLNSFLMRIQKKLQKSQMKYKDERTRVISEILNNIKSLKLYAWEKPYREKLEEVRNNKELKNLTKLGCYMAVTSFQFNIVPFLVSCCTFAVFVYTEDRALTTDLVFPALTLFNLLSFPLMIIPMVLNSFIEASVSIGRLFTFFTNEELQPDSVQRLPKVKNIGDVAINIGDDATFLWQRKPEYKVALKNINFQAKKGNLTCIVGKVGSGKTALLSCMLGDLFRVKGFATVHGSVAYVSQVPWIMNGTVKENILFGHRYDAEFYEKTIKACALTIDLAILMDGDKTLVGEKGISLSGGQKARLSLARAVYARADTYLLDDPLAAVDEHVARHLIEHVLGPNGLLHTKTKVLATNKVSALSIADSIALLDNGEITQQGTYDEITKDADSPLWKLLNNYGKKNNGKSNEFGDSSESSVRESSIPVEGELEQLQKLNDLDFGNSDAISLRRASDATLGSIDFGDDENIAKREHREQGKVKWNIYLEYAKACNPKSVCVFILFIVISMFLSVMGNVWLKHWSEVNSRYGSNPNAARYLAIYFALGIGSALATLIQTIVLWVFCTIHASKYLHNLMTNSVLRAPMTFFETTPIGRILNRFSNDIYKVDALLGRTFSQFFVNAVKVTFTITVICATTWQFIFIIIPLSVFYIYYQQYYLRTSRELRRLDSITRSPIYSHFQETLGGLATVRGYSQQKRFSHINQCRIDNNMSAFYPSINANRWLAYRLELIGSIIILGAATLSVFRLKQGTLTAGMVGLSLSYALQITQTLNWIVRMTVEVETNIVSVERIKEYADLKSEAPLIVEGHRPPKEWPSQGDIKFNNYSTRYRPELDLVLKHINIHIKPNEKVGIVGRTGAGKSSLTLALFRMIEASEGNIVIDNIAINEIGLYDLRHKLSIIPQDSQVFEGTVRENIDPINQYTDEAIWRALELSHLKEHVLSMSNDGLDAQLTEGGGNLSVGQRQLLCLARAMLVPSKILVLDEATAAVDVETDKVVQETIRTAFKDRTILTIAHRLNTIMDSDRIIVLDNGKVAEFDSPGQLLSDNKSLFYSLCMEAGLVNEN

Compound: COc1ccc2c(c1)OC1c3ccc(O)cc3OCC21 (centres unmarked) [medicarpin]
- uptake in the presence of MgATP ([1]; 3 mM MgATP): 16.7±3.6 nmol/mg/20 minutes
- uptake in the absence of MgATP ([1]; -MgATP): 7.4±1.3 nmol/mg/20 minutes

Compound: mono(glutathionato)cadmium [LMW-Cd.GS]
- 109Cd uptake of Mono-Q fraction ([2]; 50 μM (as Cd)): 4.4 ± 0.8 nmol/mg/10 min
- uptake of LMW-109Cd.GS ([2]; all of the concentrations examined): negligible
- 109Cd uptake of Mono-Q fraction ([3]; 50 μM (as Cd)): 3.9 nmol/mg/10 min

Compound: OCCS [2-mercaptoethanol]
- inhibition of Cd2+ uptake by pretreatment of HMW-Cd.GS ([2]; pretreatment with 2-mercaptoethanol): > 80%

Compound: [N-]=[N+]=Nc1ccc(C(=O)CSC[C@H](NC(=O)CC[C@H](N)C(=O)O)C(=O)NCC(=O)O)cc1 [Azidophenacyl-GS]
- MgATP-dependent, uncoupler-insensitive DNP-GS uptake plus compound ([4]; 5 μM gramicidin D, GSH, GSSG 1 mM, GS-conjugates 100 μM): 16.0 ± 1.4 nmol/mg/10 minutes
- MgATP-dependent, uncoupler-insensitive DNP-GS uptake as percentage of control ([4]; 5 μM gramicidin D, GSH, GSSG 1 mM, GS-conjugates 100 μM, 10 min): 33.5%
- inhibition of DNP-GS uptake ([4]; 100 μM compound): about 50%
- MgATP-dependent, uncoupler-insensitive DNP-GS uptake plus compound [5]: 5.2 ± 0.3 nmol/mg/10 minutes
- MgATP-dependent, uncoupler-insensitive DNP-GS uptake as percentage of control ([5]; 10 min): 80.0%

Compound: N[C@@H](CCC(=O)N[C@@H](C[S][Cd][S]C[C@H](NC(=O)CC[C@H](N)C(=O)O)C(=O)NCC(=O)O)C(=O)NCC(=O)O)C(=O)O [HMW-Cd.GS, bis(glutathionato)cadmium]
- Vmax for MgATP-dependent, uncoupler-insensitive Cd.GS2 uptake [2]: 157.2±60.7 nmol/mg/10 minutes
- 109Cd.GS2 uptake, control ([2]; 50 μM 109Cd.GS2, no addition): 105.8 ± 12.4 nmol/mg/10 minutes
- 109Cd uptake of Mono-Q fraction ([2]; 50 μM (as Cd)): 66.3 ± 2.7 nmol/mg/10 min
- 109Cd uptake after 2-ME pretreatment [2, 6]: 11.9 ± 2.4 nmol/mg/10 min
- Vmax for MgATP-dependent, uncoupler-insensitive Cd.GS2 uptake ([2]; listed as Cd.GS2): 157.2±30.4 nmol/mg/10 minutes
- Km ([2]; read-out: Km for MgATP-dependent, uncoupler-insensitive Cd.GS2 uptake): 39.1 ± 14.1 µM
- 109Cd.GS2 uptake, control ([3]; 50 μM 109Cd.GS2, no addition): 17.3 ± 2.7 nmol/mg/10 minutes
- 109Cd uptake of Mono-Q fraction ([3]; 50 μM (as Cd)): 5.6 ± 2.6 nmol/mg/10 min
- 109Cd uptake after 2-ME pretreatment [3, 6]: 4.4 ± 3.0 nmol/mg/10 min
